Bridges are numbered along the chain shown (N, C = ends). Where no end group is shown, it is not given here.
Legend:
rKv1.2 = test: TEVC, Kv1.2 in Xenopus oocytes; assay type: cell-based, rat
Excerpt: (§1) For the expression of Kv channels (rKv1.1, rKv1.2, rKv1.3, rKv1.4, rK1.5, rKv1.6, hKv2.1, hKv3.1, rKv4.2, hKv7.1, hKv7.2/7.3, hKv7.4, KQT1 (from the roundworm Caenorhabditis elegans), hKv10.1 (hEAG1), hKv11.1 (hERG1), and Shaker, from Drosophila melanogaster), Nav channels (rNav1.1, rNav1.2, rNav1.3, rNav1.4, hNav1.5, mNav1.6, hNav1.7, hNav1.8, and BgNav (from the cockroach Blattella germanica), as well as the hβ1 and rβ1 subunits, and Cav channels (rCav3.1, hCav3.2, and rCav3.3) in Xenopus oocytes, the linearized plasmids were transcribed using the T7 or SP6 mMESSAGEmMACHINE transcription kit (Ambion, Austin, TX, USA). Mature female animals were purchased from Nasco (Fort Atkinson, WI, USA) and were housed in the Aquatic Facility (KU Leuven) in compliance with the regulations of the European Union (EU) concerning the welfare of laboratory animals as declared in Directive 2010/63/EU. The use of X. laevis oocytes was approved by the Animal Ethics Committee of the KU Leuven, with the license number P186/2019.
Stage V–VI oocytes were collected from anesthetized female X. laevis frog as previously described, with the frogs anesthetized by placement in a 0.1% tricaine solution (amino benzoic acid ethyl ester; Merck, Kenilworth, NJ, USA). Oocyte microinjection was performed using a microinjector (Drummond Scientifc®, Broomall, PA, USA), with a programmed cRNA injection volume of 4–50 nL, depending on channel subtype. The oocytes were incubated in ND96 solution (96 mM NaCl; 2 mM KCl; 1.8 mM CaCl2; 2 mM MgCl2, and 5 mM HEPES, pH 7.4), supplemented with 50 mg/L of gentamicin sulfate.
Electrophysiological measurements were performed at room temperature (18–22 °C) using the two-electrode voltage-clamp (TEVC) technique. Data were obtained using a GeneClamp 500 amplifier (Axon Instruments®, Burlingame, CA, USA) and Clampex9 software (Axon Instruments®, USA) was responsible for data acquisition and storage. Glass micropipettes were produced using glass capillaries (borosilicate WPI 1B120-6) and drawn in a WPI (World Precision Instruments®, Sarasota, FL, USA) manual stretcher. The bath and perfusion solutions were either the previously described ND96 (Nav and Kv channels) or calcium-free ND96 supplemented with 10 mM BaCl2 (Cav channels).
(§2) Whole-cell currents of oocytes were recorded 1 to 3 days after RNA injection. The current and voltage electrodes were filled with 3 M KCl, and their resistance was adjusted from 1.0 to 2.5 MΩ. […] The current–voltage relationships were determined by 50 ms step depolarizations between −90 and +65 mV using 5 or 10 mV increments. All electrophysiological data were analyzed following the procedures described by Peigneur et al., 2012 [20].
(§3) All values were expressed as means ± SEM. […]

rKv1.6 = test: TEVC, Kv1.6 in Xenopus oocytes; assay type: cell-based, rat; conditions: 1 µM, n ≥ 3
Excerpt: as §1, with “P186/2019. […]” for “P186/2019.”
as §2, with “injection.” for “injection. The current and voltage electrodes were filled with 3 M KCl, and their resistance was adjusted from 1.0 to 2.5 MΩ.”
as §3

hKv10.1 (hEAG1) = test: TEVC, Kv10.1 in Xenopus oocytes; assay type: cell-based, human; conditions: 1 µM, ND96 pH 7.4, 18–22 °C, n ≥ 3
Excerpt: as §1, with “P186/2019. […]” for “P186/2019.”
as §2, with “injection.” for “injection. The current and voltage electrodes were filled with 3 M KCl, and their resistance was adjusted from 1.0 to 2.5 MΩ.”
as §3

[1] = test system: voltage-gated potassium (KV), sodium (NaV), and calcium (CaV) channels; test: TEVC screening panel of 28 voltage-gated ion channels; assay type: cell-based; conditions: 1 µM; 28 channels screened
Excerpt: as §1, with “P186/2019. […]” for “P186/2019.”
as §2, with “injection.” for “injection. The current and voltage electrodes were filled with 3 M KCl, and their resistance was adjusted from 1.0 to 2.5 MΩ.”
as §3

For “GTPCKCHGYIGVYWFMLAGCPNGYGYNLSCPYFLGICCVKK (disulfide 4-37, 6-30, 20-38 (inferred)) [Hcr 1b-2]”, the “gating-modifier effect (voltage-current relationship), Kv1.2” value (rKv1.2; 1 µM) was “non-significant gating-modifier effect”, the “Shift in Vhalf activation, Kv1.2” value (rKv1.2; 1 µM vs control (ND96)) was −4.9 mV and the “effect on potassium current, Kv1.2” value (rKv1.2; 1 µM, TEVC, ND96 pH 7.4, 18–22 °C, n ≥ 3) was “activation”. For the same sequence, the “Vhalf activation, Kv1.2” value (rKv1.2; 1 µM, control (ND96) −24.7 ± 0.7, mean ± SEM) was −29.6 ± 0.89 mV, the “activity (inhibition of current), Kv1.6” value (rKv1.6; 500 ms depolarization to 0 mV from −90 mV, mean ± SEM) was 31.5 ± 6.7% and the “effect on potassium current, Kv1.6” value (rKv1.6; TEVC, ND96 pH 7.4, 18–22 °C) was “inhibition”. For the same sequence, the “effect on potassium current, Kv10.1” value (hKv10.1 (hEAG1)) was “not active” and the “number of targets acted on, of 28 screened ion channels” value [1] was 26 targets.

From paper PMC8878452, “A Tale of Toxin Promiscuity: The Versatile Pharmacological Effects of Hcr 1b-2 Sea Anemone Peptide on Voltage-Gated Ion Channels” (Marine Drugs, 2022)
